The source made the active and inactive calls. No cut-off for these calls is given here.
Tests used:
[1] = Inhibition of death receptor signaling mediated apoptosis in human Jurkat cell assessed as cytoprotection after 30 hrs by in presence of FasL, CHX and zVAD.fmk; type: cell-based
[2] = Inhibition of death receptor signaling mediated necroptotic cell death in human Jurkat cell deficient in FADD assessed as cytoprotection after 30 hrs by in presence of TNFalpha; type: cell-based
[3] = system: U-937; assay: Inhibition of apoptosis in human U937 cells assessed as cell viability after 48 hrs by ATP based viability assay in presence of TNFalpha and CHX; type: functional
[4] = system: NIH3T3; assay: Inhibition of apoptosis in mouse 3T3 cells assessed as cell viability after 24 hrs by ATP based viability assay in presence of TNFalpha and CHX; type: functional
[5] = Inhibition of death receptor signaling mediated necroptotic cell death in human U937 cells assessed as cell viability after 48 hrs by ATP based viability assay in presence of TNFalpha and zVAD-fmk; conditions: U-937
[6] = system: U-937; assay: Inhibition of oxidative stress induced necrosis in human U937 cells after 24 hrs in presence of menadione; type: functional, cell-based
[7] = Inhibition of death receptor signaling mediated necroptotic cell death in mouse L929 cells assessed as decreased levels of PE-conjugated autophagy marker LC3-II after 24 hrs by Western blot method in presence of TNFalpha; type: cell-based
[8] = Inhibition of death receptor signaling mediated necroptotic cell death in mouse 3T3 cells assessed as decreased levels of PE-conjugated autophagy marker LC3-II after 24 hrs by Western blot method in presence of TNFalpha and zVAD-fmk; type: cell-based; conditions: NIH3T3
[9] = Inhibition of death receptor signaling mediated necroptotic cell death in human Jurkat cells deficient in FADD and expressing FKBP12-based dimerization domain assessed as cell viability after 48 hrs by FACS in presence of AP1510
[10] = Inhibition of death receptor signaling mediated necroptotic cell death in human U937 cell assessed as cell viability after 72 hrs by ATP based viability assay in presence of TNFalpha and zVAD.fmk; conditions: U-937
[11] = Inhibition of death receptor signaling mediated necrotic cell death in human Jurkat cell assessed as cell viability after 30 hrs by ATP based viability assay in presence of FasL, CHX, zVAD.fmk
[12] = Inhibition of death receptor signaling mediated necrotic cell death in human Jurkat cell expressing FADD fused to FKBP12-based dimerization domain (JK-FF)assessed as cell viability after 48 hrs by ATP based viability assay in presence of AP20187 and zVAD.fmk
[13] = Inhibition of death receptor signaling mediated necrotic cell death in SV40 transformed mouse MEF cells assessed as cell viability after 16 hrs by ATP based viability assay in presence of TNFalpha, CHX and zVAD.fmk
[14] = Inhibition of death receptor signaling mediated necrotic cell death in rat IEC18 cells assessed as cell viability in presence of TNFalpha and zVAD.fmk; type: cell-based
[15] = Inhibition of death receptor signaling mediated necrotic cell death in human HL60 cells assessed as cell viability in presence of TNFalpha and zVAD.fmk; type: cell-based; conditions: HL-60
[16] = Inhibition of death receptor signaling mediated necroptotic cell death in human Jurkat cell deficient in FADD assessed as cell viability after 30 hrs by ATP based viability assay in presence of TNFalpha
[17] = Inhibition of death receptor signaling mediated necroptotic cell death in human Jurkat cell deficient in FADD assessed as changes in cell size after 24 hrs by forward and side scatter FACS analysis in presence of TNFalpha; type: cell-based
[18] = system: Jurkat; assay: Induction of proliferative capacity in necroptotic human Jurkat cell deficient in FADD assessed as cell viability; type: functional, cell-based
[19] = Inhibition of death receptor signaling mediated necroptotic cell death in human Jurkat cell deficient in FADD assessed as inhibition of plasma membrane permeability after 24 hrs by in presence of TNFalpha; type: cell-based
[20] = Inhibition of death receptor signaling mediated apoptosis in human Jurkat cell assessed as inhibition of plasma membrane permeability after 24 hrs by in presence of FasL, CHX and zVAD.fmk; type: cell-based
[21] = Inhibition of death receptor signaling mediated apoptosis in human Jurkat cell assessed as inhibition of mitochondrial dysfunction after 24 hrs by in presence of FasL, CHX and zVAD.fmk; type: cell-based
[22] = system: Jurkat; assay: Effect on apoptosis in human Jurkat cell assessed as cytoplasm condensation by electron microscopy in presence of FasL and CHX; type: functional, cell-based
[23] = system: Jurkat; assay: Inhibition of necrosis in human Jurkat cells assessed as organelle swelling by bright field microscopy in presence of FasL, CHX and zVAD-fmk; type: functional, cell-based
[24] = system: Jurkat; assay: Inhibition of necrosis in human Jurkat cells assessed as appearance of translucent cytosol in presence of FasL, CHX and zVAD-fmk; type: functional, cell-based
[25] = system: Jurkat; assay: Inhibition of necrosis in human Jurkat cells deficient in FADD assessed as inhibition of nuclear condensation by bright field microscopy in presence of TNFalpha; type: functional, cell-based
[26] = system: Jurkat; assay: Inhibition of necrosis in human Jurkat cells deficient in FADD assessed as inhibition of early loss of plasma membrane integrity by bright field microscopy in presence of TNFalpha; type: functional, cell-based
[27] = system: Jurkat; assay: Effect on ATP level in human Jurkat cells; type: functional, cell-based
[28] = system: Jurkat; assay: Effect on mitochondrial membrane potential in human Jurkat cells; type: functional, cell-based
[29] = system: Jurkat; assay: Effect on plasma membrane integrity in human Jurkat cells; type: functional, cell-based
[30] = system: Jurkat; assay: Effect on changes in cell size in human Jurkat cells; type: functional, cell-based
[31] = system: Jurkat; assay: Effect on changes in cell shape in human Jurkat cells; type: functional, cell-based
[32] = system: Jurkat; assay: Effect on cell cycle in human Jurkat cells assessed as cells in sub-G1 phase; type: functional, cell-based
[33] = system: Jurkat; assay: Effect on cell cycle in human Jurkat cells assessed as cells in S phase; type: functional, cell-based
[34] = system: Jurkat; assay: Effect on gene expression in human Jurkat cells after 16 hrs by Agilent DNA chip analysis; type: functional, cell-based
[35] = system: NIH3T3; assay: Effect on actin cytoskeleton in mouse 3T3 cells after 24 hrs by phalloidin-TRITC staining in presence of TNFalpha and zVAD-fmk; type: functional, cell-based
[36] = system: NIH3T3; assay: Effect on morphology of golgi apparatus in mouse 3T3 cells after 24 hrs by anti-giantin immunofluorescence in presence of TNFalpha and zVAD-fmk; type: functional, cell-based
[37] = system: NIH3T3; assay: Effect on morphology of mitochondria in mouse 3T3 cells after 24 hrs by anti-cytochrome c immunofluorescence in presence of TNFalpha and zVAD-fmk; type: functional, cell-based
[38] = system: Jurkat; assay: Effect on cell cycle in human Jurkat cells deficient in FADD assessed as cells in sub-G1 phase relative to control; type: functional
[39] = system: Jurkat; assay: Effect on cell cycle in human Jurkat cells deficient in FADD assessed as cells in S phase relative to control; type: functional
[40] = system: Jurkat; assay: Effect on cell cycle in human Jurkat cells deficient in FADD assessed as cells in G2/M phase relative to control; type: functional
[41] = system: Jurkat; assay: Effect on cell cycle in human Jurkat cells deficient in FADD assessed as cells in sub-G1 phase in presence of TNFalpha relative to control; type: functional
[42] = system: Jurkat; assay: Effect on cell cycle in human Jurkat cells deficient in FADD assessed as cells in G1 phase in presence of TNFalpha relative to control; type: functional
[43] = system: Jurkat; assay: Effect on cell cycle in human Jurkat cells deficient in FADD assessed as cells in S phase in presence of TNFalpha relative to control; type: functional

What does the source list for `CN1C(=O)C(Cc2c[nH]c3ccccc23)NC1=S` (centres undefined) [NECROSTATIN]?
inhibition [1]: inactive; inhibition [2]: Active; inhibition [3]: inactive; inhibition [4]: inactive; inhibition [5]: Active; inhibition [6]: inactive; inhibition [7]: Active; inhibition [8]: Active; inhibition [9]: Active; inhibition [10]: Dose-dependent effect; inhibition [11]: Active; inhibition [12]: Active; inhibition [13]: Active; inhibition [14]: Active; inhibition [15]: Active; IC50 [16]: 494 nM; inhibition [16]: Active; inhibition [17]: Active; Activity [18]: Active; inhibition [19]: Active; inhibition [20]: Active; inhibition [21]: Active; Activity [22]: inactive; inhibition [23]: Active; inhibition [24]: Active; inhibition [25]: Active; inhibition [26]: Active; Activity [27]: inactive; Activity [28]: inactive; Activity [29]: inactive; Activity [30]: inactive; Activity [31]: inactive; Activity [32]: inactive; Activity [33]: inactive; Activity [34]: inactive; Activity [35]: inactive; Activity [36]: inactive; Activity [37]: inactive; Activity [38]: 0.7%; Activity [39]: 45.1%; Activity [40]: 13.5%; Activity [41]: 0.7%; Activity [42]: 43.1%; Activity [43]: 44.8%
